From ChEMBL document CHEMBL1156829 (Proc Natl Acad Sci U S A, 2008) come the findings set out here.

For data set [1], the system named is Plasmodium falciparum. The data set can be described thus: NOVARTIS: Inhibition of Plasmodium falciparum 3D7 (drug-susceptible) proliferation in erythrocyte-based infection assay. The settings on record: Plasmodium falciparum, 3D7. In kind it is functional, organism-based.
In data set [2] the test system is Plasmodium falciparum. Description: NOVARTIS: Inhibition of Plasmodium falciparum W2 (drug-resistant) proliferation in erythrocyte-based infection assay. The format is functional, organism-based. The following applies: Plasmodium falciparum, W2; read-out: EC50.
Data set [3] in a line: NOVARTIS: Cytotoxicity against human hepatocellular carcinoma cell line (Huh7). The settings on record: Huh7 cells (hepatocellular carcinoma cell line). The format is toxicity, cell-based, Huh-7.

What is called EC50 is the concentration at which the effect is half-maximal. Usually CC50 stands for the concentration giving 50% cytotoxicity. Higher therefore signals better tolerance by the cells. As to `O=C(CN1CCCC1)Nc1ccc(Cc2ccc(NC(=O)CN3CCCC3)cc2)cc1`, the EC50 with Plasmodium falciparum [1] stood at 307 nM; with Plasmodium falciparum [2], 367 nM. The compound also came in with a CC50 in data set [3] of 18800 nM.
The corresponding values for `COC(=O)c1cn([C@@H]2C[C@@H](C(=O)NCc3cccc(C(F)(F)F)c3)N(C3CCN(Cc4ccccc4)CC3)C2)nn1` are 1520 nM, 1980 nM and above 100000 nM.
The corresponding values for `COc1ccc(C=C2N=C(c3ccc(Cl)cc3)N(c3ccccc3)C2=O)cc1OC` are above 12500 nM, 1990 nM and above 100000 nM.
Regarding `COc1ccc(NC(=O)c2cc3cc(C4(O)CCN(CC(C)c5ccccc5)CC4)ccc3o2)cc1` (stereo not drawn), the EC50 stood at 2400 nM in the data set with Plasmodium falciparum [1] and 1980 nM in the data set with Plasmodium falciparum [2]. Further, in data set [3], the CC50 is above 100000 nM.
The corresponding values for `COC(C)(C)CNCc1cc2cc3c(cc2n(Cc2cccc(C(F)(F)F)c2)c1=O)CCC3` are above 1250 nM, above 198 nM and above 10000 nM.
The corresponding values for `C#CC(C)(C)NC(=O)c1ccc(-c2ccc(CC)cc2)cc1` are 3030 nM, 1970 nM and above 100000 nM.
`COc1cccc(-c2cn3c(n2)sc2cc(C(=O)NC4CCN(Cc5ccccc5)CC4)ccc23)c1`: the EC50 in the data set on Plasmodium falciparum [1] worked out at 513 nM; in the data set with Plasmodium falciparum [2], 1980 nM. This compound showed a CC50 in data set [3] above 100000 nM.
The corresponding values for `CCCc1ccc(C(=O)NC(=O)c2ccccc2O)cc1` are 193 nM, 325 nM and 16500 nM.
The corresponding values for `CC(=O)N(C=C1Sc2ccccc2C1=O)c1ccc(C)cc1` are 10700 nM, 1970 nM and above 100000 nM.
The corresponding values for `C=CC(C)(CCC=C(C)C)c1ccc2c3c(c[nH]c13)CC(CO)NC(=O)C(C(C)C)N2C` (stereo not drawn) are 552 nM, 197 nM and above 10000 nM.
As for `COc1cccc(C=NNC(=O)CSc2ccccc2C)c1O`, the EC50 with Plasmodium falciparum [1] is 7940 nM; with Plasmodium falciparum [2] it was 1960 nM. Also, the CC50 in data set [3] is above 100000 nM.
Take `COc1ccc(S(=O)(=O)N(C)CCCNc2ccnc3cc(Cl)ccc23)cc1`: the EC50 was 115 nM in the data set with Plasmodium falciparum [1] and 197 nM with Plasmodium falciparum [2]. The midpoint of cytotoxicity in data set [3], the CC50, lay at 10100 nM.
The corresponding values for `Cc1ccc(C(=O)NNc2nc(Nc3ccccc3)nc(N3CCCC3)n2)cc1` are above 12500 nM, 1990 nM and above 100000 nM.
The corresponding values for `CN(C)S(=O)(=O)c1ccc(C(=O)Nc2nc3c(ccc4ccccc43)s2)cc1` are above 9470 nM, 1970 nM and above 100000 nM.
The corresponding values for `CN(CCCNc1ccnc2cc(Cl)ccc12)S(=O)(=O)c1ccc([N+](=O)[O-])cc1` are 240 nM, 217 nM and above 11100 nM.
On to `CC1CN(C2CC(=O)N(c3ccccc3)C2=O)CC(C)O1` (stereo not drawn), for which the EC50 in the data set with Plasmodium falciparum [1] is 873 nM; with Plasmodium falciparum [2], above 195 nM. The compound further gave a CC50 in data set [3] above 10000 nM.
On to `CC1=C(C(=O)OC2CCCCC2)C(c2cccc([N+](=O)[O-])c2)C2=C(CCCC2=O)N1` (stereo not drawn), for which the EC50 in the data set on Plasmodium falciparum [1] was 1640 nM; in the data set with Plasmodium falciparum [2] it was 1330 nM. The same compound returned a CC50 in data set [3] of 68400 nM.
The corresponding values for `Cc1cccc(NC(=O)c2ccc(N3CC4CC(C3)c3cccc(=O)n3C4)c(NC(=O)Cc3c(F)cccc3Cl)c2)n1` (stereo not drawn) are above 1450 nM, 197 nM and above 10000 nM.
On to `CCC(COC)NC(=O)c1cn(C2CCCCC2)cc(C(=O)NC(C)(C)C)c1=O` (stereo not drawn), for which the EC50 was 2900 nM in the data set with Plasmodium falciparum [1] and 1980 nM with Plasmodium falciparum [2]. For the same compound, the CC50 in data set [3] is above 100000 nM.
The corresponding values for `O=C(O)CC(c1ccc2c(c1)OCO2)N1CCS(=O)(=O)CC1` (stereo not drawn) are above 1250 nM, above 196 nM and above 10000 nM.
The corresponding values for `CCOC(=O)CCCSc1nc(-c2cccs2)cc(C(F)(F)F)c1C#N` are 352 nM, 198 nM and above 10000 nM.
